We go through 33 molecules from patent US9549932B2, “2-(morpholin-4-yl)-1,7-naphthyridines” (BAYER PHARMA AKTIENGESELLSCHAFT, priority 2014, dated 2017).

Chain of full-length human ATR protein (Q13535 other isoform, or with tags, fused parts or gaps): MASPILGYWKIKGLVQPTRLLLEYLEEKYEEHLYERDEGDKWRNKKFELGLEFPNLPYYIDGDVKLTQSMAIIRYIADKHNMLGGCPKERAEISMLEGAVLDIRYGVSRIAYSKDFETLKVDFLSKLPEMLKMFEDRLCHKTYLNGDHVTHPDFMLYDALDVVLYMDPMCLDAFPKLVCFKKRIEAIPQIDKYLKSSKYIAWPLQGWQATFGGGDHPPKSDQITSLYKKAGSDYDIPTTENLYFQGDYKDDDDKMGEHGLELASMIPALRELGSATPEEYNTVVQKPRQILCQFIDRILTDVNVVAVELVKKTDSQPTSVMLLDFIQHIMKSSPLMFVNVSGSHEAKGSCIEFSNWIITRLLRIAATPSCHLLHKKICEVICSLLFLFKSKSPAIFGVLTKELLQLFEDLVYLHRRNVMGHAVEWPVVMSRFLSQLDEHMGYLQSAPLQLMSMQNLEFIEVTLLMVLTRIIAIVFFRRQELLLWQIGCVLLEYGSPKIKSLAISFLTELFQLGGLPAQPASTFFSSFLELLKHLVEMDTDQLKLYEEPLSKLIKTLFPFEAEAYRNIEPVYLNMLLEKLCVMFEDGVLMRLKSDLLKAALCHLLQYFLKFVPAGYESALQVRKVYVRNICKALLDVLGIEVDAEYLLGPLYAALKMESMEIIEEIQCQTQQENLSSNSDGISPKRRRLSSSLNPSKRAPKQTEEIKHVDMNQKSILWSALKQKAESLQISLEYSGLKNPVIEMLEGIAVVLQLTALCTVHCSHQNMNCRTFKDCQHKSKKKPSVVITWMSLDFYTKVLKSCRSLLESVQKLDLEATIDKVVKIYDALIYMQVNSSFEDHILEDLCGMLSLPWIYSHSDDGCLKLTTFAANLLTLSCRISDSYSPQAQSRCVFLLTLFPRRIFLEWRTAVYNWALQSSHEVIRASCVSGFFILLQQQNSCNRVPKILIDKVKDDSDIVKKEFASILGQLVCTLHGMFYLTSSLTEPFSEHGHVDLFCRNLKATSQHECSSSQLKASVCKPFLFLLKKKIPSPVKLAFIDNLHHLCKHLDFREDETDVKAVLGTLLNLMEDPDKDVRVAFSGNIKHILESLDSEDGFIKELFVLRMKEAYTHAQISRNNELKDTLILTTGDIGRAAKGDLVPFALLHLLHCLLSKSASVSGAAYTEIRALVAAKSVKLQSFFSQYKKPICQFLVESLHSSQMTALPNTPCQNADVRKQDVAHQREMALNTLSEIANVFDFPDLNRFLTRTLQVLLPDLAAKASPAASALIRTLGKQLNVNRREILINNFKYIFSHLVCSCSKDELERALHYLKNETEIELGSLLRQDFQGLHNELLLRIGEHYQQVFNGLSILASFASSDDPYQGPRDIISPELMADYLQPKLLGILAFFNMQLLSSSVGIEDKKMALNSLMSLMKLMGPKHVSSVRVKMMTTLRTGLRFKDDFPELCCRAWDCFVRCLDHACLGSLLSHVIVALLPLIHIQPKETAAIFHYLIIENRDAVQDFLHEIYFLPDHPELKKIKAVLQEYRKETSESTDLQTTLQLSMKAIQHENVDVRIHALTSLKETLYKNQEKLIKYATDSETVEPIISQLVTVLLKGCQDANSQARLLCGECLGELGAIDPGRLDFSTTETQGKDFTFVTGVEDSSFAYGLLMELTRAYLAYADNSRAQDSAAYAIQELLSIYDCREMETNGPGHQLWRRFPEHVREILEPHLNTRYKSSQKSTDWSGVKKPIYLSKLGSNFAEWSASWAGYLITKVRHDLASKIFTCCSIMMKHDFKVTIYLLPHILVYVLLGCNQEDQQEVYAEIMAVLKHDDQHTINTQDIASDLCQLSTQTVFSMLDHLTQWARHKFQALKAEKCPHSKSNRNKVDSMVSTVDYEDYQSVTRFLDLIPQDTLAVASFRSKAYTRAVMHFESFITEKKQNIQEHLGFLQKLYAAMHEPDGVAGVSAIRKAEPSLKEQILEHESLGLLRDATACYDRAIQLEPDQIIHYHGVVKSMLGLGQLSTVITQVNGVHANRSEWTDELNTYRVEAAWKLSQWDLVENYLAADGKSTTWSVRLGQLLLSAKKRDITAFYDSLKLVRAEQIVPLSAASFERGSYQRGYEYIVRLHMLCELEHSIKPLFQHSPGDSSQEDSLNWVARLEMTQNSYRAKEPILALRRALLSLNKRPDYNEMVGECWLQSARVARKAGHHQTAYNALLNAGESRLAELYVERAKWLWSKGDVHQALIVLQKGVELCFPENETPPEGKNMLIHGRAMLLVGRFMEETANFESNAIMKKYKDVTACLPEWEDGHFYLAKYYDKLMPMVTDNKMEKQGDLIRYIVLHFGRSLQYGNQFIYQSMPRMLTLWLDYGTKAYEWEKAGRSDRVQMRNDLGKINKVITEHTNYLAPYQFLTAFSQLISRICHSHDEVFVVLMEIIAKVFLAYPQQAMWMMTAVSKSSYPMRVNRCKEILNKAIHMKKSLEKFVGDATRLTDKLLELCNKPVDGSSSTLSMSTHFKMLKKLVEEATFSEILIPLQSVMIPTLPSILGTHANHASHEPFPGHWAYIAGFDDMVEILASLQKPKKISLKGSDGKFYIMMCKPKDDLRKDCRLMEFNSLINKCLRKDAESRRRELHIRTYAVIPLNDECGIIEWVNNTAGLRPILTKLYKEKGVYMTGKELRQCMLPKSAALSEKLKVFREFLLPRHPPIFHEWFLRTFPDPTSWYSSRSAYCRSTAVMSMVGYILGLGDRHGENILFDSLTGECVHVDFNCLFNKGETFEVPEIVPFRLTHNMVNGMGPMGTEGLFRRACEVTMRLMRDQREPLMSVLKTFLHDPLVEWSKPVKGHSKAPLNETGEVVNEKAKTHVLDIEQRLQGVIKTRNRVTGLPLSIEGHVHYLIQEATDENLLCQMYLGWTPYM
Chain of full-length human ATR protein (Q8WXE1 other isoform, or with tags, fused parts or gaps partner): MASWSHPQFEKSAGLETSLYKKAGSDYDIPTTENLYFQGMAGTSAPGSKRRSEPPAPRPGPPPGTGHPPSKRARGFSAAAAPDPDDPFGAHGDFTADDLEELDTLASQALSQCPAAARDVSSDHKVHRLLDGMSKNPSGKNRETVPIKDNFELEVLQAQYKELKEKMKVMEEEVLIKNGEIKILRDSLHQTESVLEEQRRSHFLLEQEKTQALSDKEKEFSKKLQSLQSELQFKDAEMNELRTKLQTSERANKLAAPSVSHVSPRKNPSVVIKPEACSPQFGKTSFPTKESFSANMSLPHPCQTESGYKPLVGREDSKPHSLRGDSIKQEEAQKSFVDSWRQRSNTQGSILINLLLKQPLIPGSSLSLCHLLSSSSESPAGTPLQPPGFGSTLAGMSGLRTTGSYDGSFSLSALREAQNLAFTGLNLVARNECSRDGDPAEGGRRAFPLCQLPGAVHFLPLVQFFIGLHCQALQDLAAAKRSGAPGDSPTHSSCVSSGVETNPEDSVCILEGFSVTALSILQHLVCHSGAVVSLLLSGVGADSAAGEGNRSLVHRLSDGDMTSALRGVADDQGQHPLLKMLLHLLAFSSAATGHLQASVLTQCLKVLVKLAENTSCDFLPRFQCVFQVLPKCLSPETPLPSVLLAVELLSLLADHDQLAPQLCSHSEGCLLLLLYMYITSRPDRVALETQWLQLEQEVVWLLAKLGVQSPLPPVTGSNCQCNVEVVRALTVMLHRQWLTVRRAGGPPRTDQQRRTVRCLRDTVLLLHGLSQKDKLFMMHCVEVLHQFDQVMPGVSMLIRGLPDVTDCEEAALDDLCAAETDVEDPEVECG

This assay addresses full-length human ATR protein (Homo sapiens (Human), UniProt Q13535). The experiment in a line: Binding assay ATR (TR-FRET tracer displacement). To be noted: tracer A, TR-FRET; read-out: ATR binding (tracer A) IC50. The method in brief:
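Full-length human GST-ATR co-purified with ATRIP, pre-complexed 30 min at 22 °C with anti-GST-Tb antibody, then pre-bound with compound 10 min. Tracer A or B added (2 µl of 100 nM solution), 30 min at 22 °C.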
For orientation: In TR-FRET formats the signal depends on donor and acceptor labels being close together.
Broadly, the IC50 is the midpoint of a concentration-inhibition curve. For `Cc1ccnc(F)c1-c1cc(N2CCOC[C@H]2C)nc2c(-c3ccn[nH]3)nccc12` [Example 90, 4-(2-fluoro-4-methylpyridin-3-yl)-2-[(3R)-3-methylmorpholin-4-yl]-8-(1H-pyrazol-5-yl)-1,7-naphthyridine], the IC50 worked out at 10.6 nM. For the molecule `C[C@@H]1COCCN1c1cc(-c2cccn2C)c2ccnc(-c3ccn[nH]3)c2n1` [Example 91, 2-[(3R)-3-methylmorpholin-4-yl]-4-(1-methyl-1H-pyrrol-2-yl)-8-(1H-pyrazol-5-yl)-1,7-naphthyridine], the IC50 amounted to 10 nM. On to `Cc1ccc(-c2cc(N3CCOC[C@H]3C)nc3c(-c4ccn[nH]4)nccc23)c(F)n1` [Example 93, 4-(2-fluoro-6-methylpyridin-3-yl)-2-[(3R)-3-methylmorpholin-4-yl]-8-(1H-pyrazol-5-yl)-1,7-naphthyridine], for which the IC50 worked out at 10.9 nM. As to `COc1ccc(-c2cc(N3CCOC[C@H]3C)nc3c(-c4ccn[nH]4)nccc23)cn1` [Example 95, 4-(6-methoxypyridin-3-yl)-2-[(3R)-3-methylmorpholin-4-yl]-8-(1H-pyrazol-5-yl)-1,7-naphthyridine], the IC50 was determined as 11.3 nM. As for `COc1ncc(-c2cc(N3CCOC[C@H]3C)nc3c(-c4ccn[nH]4)nccc23)cc1C` [Example 96, 4-(6-methoxy-5-methylpyridin-3-yl)-2-[(3R)-3-methylmorpholin-4-yl]-8-(1H-pyrazol-5-yl)-1,7-naphthyridine], the figure is 12.7 nM; as for `Cc1nc(F)ccc1-c1cc(N2CCOC[C@H]2C)nc2c(-c3ccn[nH]3)nccc12` [Example 97, 4-(6-fluoro-2-methylpyridin-3-yl)-2-[(3R)-3-methylmorpholin-4-yl]-8-(1H-pyrazol-5-yl)-1,7-naphthyridine], 13.9 nM; as for `C[C@@H]1COCCN1c1cc(-c2cc(C(F)(F)F)nn2C)c2ccnc(-c3ccn[nH]3)c2n1` [Example 98, 2-[(3R)-3-methylmorpholin-4-yl]-4-[1-methyl-3-(trifluoromethyl)-1H-pyrazol-5-yl]-8-(1H-pyrazol-5-yl)-1,7-naphthyridine], 13.1 nM. Consider `Cc1ccsc1-c1cc(N2CCOC[C@H]2C)nc2c(-c3ccn[nH]3)nccc12` [Example 99, 2-[(3R)-3-methylmorpholin-4-yl]-4-(3-methyl-2-thienyl)-8-(1H-pyrazol-5-yl)-1,7-naphthyridine], for which the IC50 was determined as 6.38 nM. Take `Cc1ccc(-c2cc(N3CCOC[C@H]3C)nc3c(-c4ccn[nH]4)nccc23)s1` [Example 100, 2-[(3R)-3-methylmorpholin-4-yl]-4-(5-methyl-2-thienyl)-8-(1H-pyrazol-5-yl)-1,7-naphthyridine]: the IC50 came out at 16.5 nM.

`Cc1cscc1-c1cc(N2CCOC[C@H]2C)nc2c(-c3ccn[nH]3)nccc12` [Example 101, 2-[(3R)-3-methylmorpholin-4-yl]-4-(4-methyl-3-thienyl)-8-(1H-pyrazol-5-yl)-1,7-naphthyridine]: the IC50 worked out at 11.3 nM. Then `C[C@@H]1COCCN1c1cc(-c2sccc2Cl)c2ccnc(-c3ccn[nH]3)c2n1` [Example 102, 4-(3-chloro-2-thienyl)-2-[(3R)-3-methylmorpholin-4-yl]-8-(1H-pyrazol-5-yl)-1,7-naphthyridine], with 12.3 nM; and `Cc1sccc1-c1cc(N2CCOC[C@H]2C)nc2c(-c3ccn[nH]3)nccc12` [Example 103, 2-[(3R)-3-methylmorpholin-4-yl]-4-(2-methyl-3-thienyl)-8-(1H-pyrazol-5-yl)-1,7-naphthyridine], with 10.1 nM; and `C[C@@H]1COCCN1c1cc(-c2ccnc3[nH]ccc23)c2ccnc(-c3ccn[nH]3)c2n1` [Example 104, 2-[(3R)-3-methylmorpholin-4-yl]-8-(1H-pyrazol-5-yl)-4-(1H-pyrrolo[2,3-b]pyridin-4-yl)-1,7-naphthyridine], with 14.1 nM. `Cc1noc(C)c1-c1cc(N2CCOC[C@H]2C)nc2c(-c3ccn[nH]3)nccc12` [Example 105, 4-(3,5-dimethyl-1,2-oxazol-4-yl)-2-[(3R)-3-methylmorpholin-4-yl]-8-(1H-pyrazol-5-yl)-1,7-naphthyridine]: the IC50 was 8.67 nM. Consider `COc1nccc(-c2cc(N3CCOC[C@H]3C)nc3c(-c4ccn[nH]4)nccc23)c1Cl` [Example 106, 4-(3-chloro-2-methoxypyridin-4-yl)-2-[(3R)-3-methylmorpholin-4-yl]-8-(1H-pyrazol-5-yl)-1,7-napthyridine], for which the IC50 came to 13.1 nM. As for `C[C@@H]1COCCN1c1cc(C2=CCSCC2)c2ccnc(-c3ccn[nH]3)c2n1` [Example 108, 4-(3,6-dihydro-2H-thiopyran-4-yl)-2-[(3R)-3-methylmorpholin-4-yl]-8-(1H-pyrazol-5-yl)-1,7-naphthyridine], the IC50 worked out at 11.5 nM. For the molecule `CC1CCN(c2cc(N3CCOC[C@H]3C)nc3c(-c4ccn[nH]4)nccc23)CC1` [Example 109, 2-[(3R)-3-methylmorpholin-4-yl]-4-(4-methylpiperidin-1-yl)-8-(1H-pyrazol-5-yl)-1,7-naphthyridine], the IC50 is 9.14 nM.

With `C[C@@H]1COCCN1c1cc(-c2ccnn2C(C)(C)C)c2ccnc(-c3ccn[nH]3)c2n1` [Example 110, 4-(1-tert-butyl-1H-pyrazol-5-yl)-2-[(3R)-3-methylmorpholin-4-yl]-8-(1H-pyrazol-5-yl)-1,7-naphthyridine], the IC50 turned out to be 13.5 nM. Regarding `Cc1cc(-c2cc(N3CCOC[C@H]3C)nc3c(-c4ccn[nH]4)nccc23)on1` [Example 112, 2-[(3R)-3-methylmorpholin-4-yl]-4-(3-methyl-1,2-oxazol-5-yl)-8-(1H-pyrazol-5-yl)-1,7-naphthyridine], the IC50 turned out to be 4.74 nM. For `CCn1nc(C)cc1-c1cc(N2CCOC[C@H]2C)nc2c(-c3ccn[nH]3)nccc12` [Example 113, 4-(1-ethyl-3-methyl-1H-pyrazol-5-yl)-2-[(3R)-3-methylmorpholin-4-yl]-8-(1H-pyrazol-5-yl)-1,7-naphthyridine], the IC50 stood at 5.71 nM. For the molecule `Cc1cnn(C)c1-c1cc(N2CCOC[C@H]2C)nc2c(-c3ccn[nH]3)nccc12` [Example 114, 4-(1,4-dimethyl-1H-pyrazol-5-yl)-2-[(3R)-3-methylmorpholin-4-yl]-8-(1H-pyrazol-5-yl)-1,7-naphthyridine], the IC50 amounted to 7.35 nM. With `CSc1ccc(-c2cc(N3CCOC[C@H]3C)nc3c(-c4ccn[nH]4)nccc23)c(C)n1` [Example 115, 4-[2-methyl-6-(methylsulfanyl)pyridin-3-yl]-2-[(3R)-3-methylmorpholin-4-yl]-8-(1H-pyrazol-5-yl)-1,7-naphthyridine], the IC50 was determined as 7.44 nM.

Turning to `Cc1nc(S(C)(=N)=O)ccc1-c1cc(N2CCOC[C@H]2C)nc2c(-c3ccn[nH]3)nccc12` (stereo partly drawn) [Example 116, 4-[2-methyl-6-(S-methylsulfonimidoyl)pyridin-3-yl]-2-[(3R)-3-methylmorpholin-4-yl]-8-(1H-pyrazol-5-yl)-1,7-naphthyridine], the IC50 came to 9.51 nM. Consider `CCCn1nccc1-c1cc(N2CCOC[C@H]2C)nc2c(-c3ccn[nH]3)nccc12` [Example 117, 2-[(3R)-3-methylmorpholin-4-yl]-4-(1-propyl-1H-pyrazol-5-yl)-8-(1H-pyrazol-5-yl)-1,7-naphthyridine], for which the IC50 was 8.16 nM. `C[C@@H]1COCCN1c1cc(-c2cnc3n2CCC3)c2ccnc(-c3ccn[nH]3)c2n1` [Example 118, 4-(6,7-dihydro-5H-pyrrolo[1,2-a]imidazol-3-yl)-2-[(3R)-3-methylmorpholin-4-yl]-8-(1H-pyrazol-5-yl)-1,7-naphthyridine]: the IC50 turned out to be 10.1 nM. In the case of `CCn1nc(C(F)(F)F)cc1-c1cc(N2CCOC[C@H]2C)nc2c(-c3ccn[nH]3)nccc12` [Example 119, 4-[1-ethyl-3-(trifluoromethyl)-1H-pyrazol-5-yl]-2-[(3R)-3-methylmorpholin-4-yl]-8-(1H-pyrazol-5-yl)-1,7-naphthyridine], the IC50 worked out at 11.7 nM.

In the case of `COC(=O)c1ccc(-c2cc(N3CCOC[C@H]3C)nc3c(-c4ccn[nH]4)nccc23)[nH]1` [Example 120, Methyl 5-{2-[(3R)-3-methylmorpholin-4-yl]-8-(1H-pyrazol-5-yl)-1,7-naphthyridin-4-yl}-1H-pyrrole-2-carboxylate], the IC50 was 13.1 nM.

Turning to `C[C@@H]1COCCN1c1cc(-c2ccns2)c2ccnc(-c3ccn[nH]3)c2n1` [Example 121, 2-[(3R)-3-methylmorpholin-4-yl]-8-(1H-pyrazol-5-yl)-4-(1,2-thiazol-5-yl)-1,7-naphthyridine], the IC50 came out at 17.4 nM. `C[C@@H]1COCCN1c1cc(-c2ccccc2N(C)C)c2ccnc(-c3ccn[nH]3)c2n1` [Example 122, N,N-dimethyl-2-{2-[(3R)-3-methylmorpholin-4-yl]-8-(1H-pyrazol-5-yl)-1,7-naphthyridin-4-yl}aniline]: the IC50 turned out to be 19.4 nM. In the case of `C[C@@H]1COCCN1c1cc(-c2ccc(F)cc2F)c2ccnc(-c3ccn[nH]3)c2n1` [Example 123, 4-(2,4-difluorophenyl)-2-[(3R)-3-methylmorpholin-4-yl]-8-(1H-pyrazol-5-yl)-1,7-naphthyridine], the IC50 stood at 21.3 nM. With `CC(C)n1nccc1-c1cc(N2CCOC[C@H]2C)nc2c(-c3ccn[nH]3)nccc12` [Example 124, 4-(1-isopropyl-1H-pyrazol-5-yl)-2-[(3R)-3-methylmorpholin-4-yl]-8-(1H-pyrazol-5-yl)-1,7-naphthyridine], the IC50 was 13.6 nM. With `CCS(=O)(CC)=Nc1cc(N2CCOC[C@H]2C)nc2c(-c3ccn[nH]3)nccc12` [Example 126, 4-{[diethyl(oxido)-λ^6-sulfanylidene]amino}-2-[(3R)-3-methylmorpholin-4-yl]-8-(1H-pyrazol-5-yl)-1,7-naphthyridine], the IC50 was found to be 21.5 nM. Turning to `CC(C)COP(C)(=O)c1cc(N2CCOC[C@H]2C)nc2c(-c3ccn[nH]3)nccc12` (stereo partly drawn) [Example 127, Isobutyl methyl{2-[(3R)-3-methylmorpholin-4-yl]-8-(1H-pyrazol-5-yl)-1,7-naphthyridin-4-yl}phosphinate], the IC50 came to 25.5 nM.
